Laboratory results reported in ChEMBL document CHEMBL6127031, “Novel multitarget directed ligands inspired by riluzole: A serendipitous synthesis of substituted benzo[b][1,4]thiazepines potentially useful as neuroprotective agents” (Bioorg Med Chem, 2024).
The source made the active and inactive calls. No cut-off for these calls is given here.

Tests used:
[1] = test system: Cerebral cortex; assay: Neuroprotective activity against OGD/R induced injury in male Wistar rat brain cortical slices assessed as reversal of tissue water gain at 0.001 to 10 uM; type: functional, tissue-based; conditions: dose 0.001-10 µM
[2] = test system: Cerebral cortex; assay: Neuroprotective activity against OGD/R induced injury in male Wistar rat brain cortical slices assessed as reversal of LDH release at 0.001 to 10 uM by spectrophometric analysis; type: functional, tissue-based; conditions: dose 0.001-10 µM
[3] = test system: Cerebral cortex; assay: Neuroprotective activity against OGD/R induced injury in male Wistar rat brain cortical slices assessed as reversal of tissue water gain at 0.01 to 1 uM; type: functional, tissue-based; conditions: dose 0.01-1 µM
[4] = test system: Cerebral cortex; assay: Neuroprotective activity against OGD/R induced injury in male Wistar rat brain cortical slices assessed as reversal of LDH release at 0.01 to 1 uM by spectrophometric analysis; type: functional, tissue-based; conditions: dose 0.01-1 µM
[5] = test system: Cerebral cortex; assay: Neuroprotective activity against OGD/R induced injury in male Wistar rat brain cortical slices assessed as effect on LDH release at 1 uM by spectrophometric analysis; type: functional, tissue-based
[6] = test system: Cerebral cortex; assay: Neuroprotective activity against OGD/R induced injury in male Wistar rat brain cortical slices assessed as effect on tissue edema at 10 uM; type: functional, tissue-based
[7] = test system: Cerebral cortex; assay: Neuroprotective activity against OGD/R induced injury in male Wistar rat brain cortical slices assessed as effect on LDH release at 10 uM by spectrophometric analysis; type: functional, tissue-based
[8] = Apparent permeability of the compound in PBS buffer at pH 7.4 incubated for 4 hrs under shaking condition by LC-UV-MS analysis; type: ADME; conditions: not told
[9] = Permeability of the compound assessed as membrane retention rate by PAMPA method; type: ADME
[10] = test system: SH-SY5Y; assay: Inhibition of Na channel in human SH-SY5Y cells assessed as normalized peak current density at 50 uM under -25 mV by whole-cell patch clamp assay; type: cell-based
[11] = test system: SH-SY5Y; assay: Inhibition of Na channel in human SH-SY5Y cells assessed as reduction in current amplitude at 50 uM by whole-cell patch clamp assay relative to control; type: cell-based
[12] = test system: SH-SY5Y; assay: Inhibition of Na channel in human SH-SY5Y cells assessed as change in channel activation at 50 uM under -30 to + 20 mV by whole-cell patch clamp assay; type: cell-based
[13] = test system: SH-SY5Y; assay: Inhibition of Na channel in human SH-SY5Y cells assessed as maximum conductance at 50 uM by whole-cell patch clamp assay relative to control; type: cell-based
[14] = test system: SH-SY5Y; assay: Inhibition of K channel in human SH-SY5Y cells assessed as reduction in steady-state component of KDR current at 50 uM under +60mV by whole-cell patch clamp assay relative to control; type: cell-based
[15] = test system: SH-SY5Y; assay: Inhibition of K channel in human SH-SY5Y cells assessed as change in channel activation at 50 uM under +25 to +55 mV by whole-cell patch clamp assay; type: cell-based
[16] = test system: SH-SY5Y; assay: Inhibition of K channel in human SH-SY5Y cells assessed as decrease in maximum conductance at 50 uM under +25 to +55 mV by whole-cell patch clamp assay relative to control; type: cell-based
[17] = test system: Cerebral cortex; assay: Neuroprotective activity against OGD/R induced injury in male Wistar rat brain cortical slices assessed as reversal of tissue water gain at 0.01 to 10 uM; type: functional, tissue-based; conditions: dose 0.01-10 µM
[18] = test system: Cerebral cortex; assay: Neuroprotective activity against OGD/R induced injury in male Wistar rat brain cortical slices assessed as reversal of LDH release at 0.01 to 10 uM by spectrophometric analysis; type: functional, tissue-based; conditions: dose 0.01-10 µM

N/C(=N\c1nc2ccc([N+](=O)[O-])cc2s1)N1CCCSc2cc([N+](=O)[O-])ccc21
Activity [1]: inactive | Activity [2]: inactive

N/C(=N\c1nc2ccc(OC(F)(F)F)cc2s1)N1CCCSc2cc(OC(F)(F)F)ccc21
Activity [3]: Active | Activity [4]: inactive | Activity [5]: inactive | Activity [6]: inactive | Activity [7]: inactive

N/C(=N\c1nc2ccccc2s1)N1CCCSc2ccccc21
Papp at 4 h [8]: 170 nm/s | R% [9]: 28.24% | inhibition [10]: Active | inhibition [11]: 28.4% | inhibition [12]: Active | inhibition [13]: 28.4% | inhibition [14]: 28.4% | inhibition [15]: Active | inhibition [16]: 35% | Activity [17]: Active | Activity [18]: Active

CC(C)NCC(O)COc1cccc2ccccc12 (stereo not given) [PROPRANOLOL]
Papp at 4 h [8]: 172 nm/s | R% [9]: 10.73%
